Measurements reported in publication PMC11433825, “Bidentate Substrate Binding Mode in Oxalate Decarboxylase” (Molecules, 2024).
Where a name gives a salt, the structure may show the parent alone.

Experiments:
[1] = target: T1, Oxalate decarboxylase (OxDC) (Bacillus subtilis, UniProt O34714, W96F); experiment: X-band […] Mims ENDOR; format: binding; settings: labelled compound (13C), 50 mM; citrate pH 5.0, 50% glycerol, 10 mM ascorbate, 5 uM DTPA; 5 K; bidentate to N-terminal active-site Mn(II)
T1 construct: recombinant, C-terminal His6 tag kept, IPTG/heat-shock expression with MnCl2, Ni-NTA purified; Mn(II) in two cupin sites per subunit

[2] = target: T2, Oxalate decarboxylase (OxDC) (Bacillus subtilis, UniProt O34714); experiment: X-band […] Mims ENDOR; format: binding; settings: labelled compound (13C), 50 mM; Tris pH 8.5, 50% glycerol, 10 mM ascorbate, 5 uM DTPA; 5 K; bidentate to N-terminal active-site Mn(II)
T2 construct: recombinant, C-terminal His6 tag kept, IPTG/heat-shock expression with MnCl2, Ni-NTA purified; Mn(II) in two cupin sites per subunit
T2 sequence (O34714 whole entry): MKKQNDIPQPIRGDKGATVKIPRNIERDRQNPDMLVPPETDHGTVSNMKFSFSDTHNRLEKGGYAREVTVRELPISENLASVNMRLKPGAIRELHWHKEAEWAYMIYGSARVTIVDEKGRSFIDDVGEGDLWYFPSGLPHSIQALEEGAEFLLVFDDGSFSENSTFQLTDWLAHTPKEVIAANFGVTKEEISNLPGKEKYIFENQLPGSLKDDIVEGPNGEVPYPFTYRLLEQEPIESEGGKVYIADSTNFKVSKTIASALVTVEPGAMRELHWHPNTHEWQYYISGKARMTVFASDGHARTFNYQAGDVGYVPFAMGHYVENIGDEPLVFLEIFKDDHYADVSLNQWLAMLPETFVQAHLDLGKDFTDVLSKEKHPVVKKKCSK

T1 sequence (O34714 whole entry W96F): as the sequence (O34714 whole entry) above, with W96F counted along it

How did the “X-band 13C Mims ENDOR” value [1] turn out when O=C(O)C(=O)O [^13C-labeled oxalate] was run?
The value was “Mn(II) ion in the active site of the OxDC mutant W96F at low pH”.

What about the “X-band 13C Mims ENDOR” value [2] of the same molecule?
Its value is “bidentate binding of oxalate in WT OxDC at high pH where the enzyme is inactive”.
